Where a name gives a salt, the structure may show the parent alone. Read-outs that look alike come from different tables or passages of the source.

Assay [1] deals with aged humans and nonhuman primates. To be noted: aged humans and nonhuman primates with decreased cognition; acetylcholinesterase inhibitors such as physostigmine; cited from earlier work.
Assay [2] deals with central muscarinic agonist site. Briefly: Receptor [^3H]Cis-methyldioxalane Assay (RCMD). Type of assay: binding. To be noted: rat cerebral cortex tissue; radiolabeled cis-methyldioxalane; head prints (0.1 μm).
Assay [3] relates to central muscarinic antagonist site. Type of assay: binding, rat. As to conditions: read-out: RQNB (1 μM) IC50.
Assay [4] deals with human SK-N-SH cells bearing muscarinic binding sites.
Experimental: In the Muscarinic Induced Inositol Phosphate Accumulation Assay (MIPA) human SK-N-SH cells bearing muscarinic binding sites are incubated with the test compound. The production of inositol phosphates is then measured. Stimulation of inositol phosphate turnover reflects the degree of muscarinic agonist activity of the test compound. The concentration of test compound required to produce a response 50% of the maximum is then determined.
The next assay has as its system mice. To be noted: cited from earlier work.
Assay [5] concerns age-related cognitive deficits. To be noted: increasing acetylcholine release from presynaptic nerve terminals; cited from earlier work.

With `CNC(=O)Oc1ccc2c(c1)[C@]1(C)CCN(C)[C@@H]1N2C` [physostigmine], in assay [1], the memory improvement result was “improved memory”.
Usually IC50 stands for the point on the concentration scale where inhibition reaches its midpoint. For `CNC(=O)N(C)CC#CCN(C)C.Cl` [Example 2, N-[4-(Dimethylamino)-2-butynyl]-N,N'-dimethyl-urea, monohydrochloride], the IC50 in assay [2] is 0.275 µM; in assay [3] (rat cerebral cortex tissue, radiolabeled quinuclidinyl benzilate, head prints (1 μM)), 100 µM. Besides, the “MIPA (ED50)” value in assay [4] was 1.84 × 10^-5.
On to `C(#CCN1CCCC1)CN1CCCC1` [tremorine, 1,4-dipyrrolidino-2-butyne], for which the “tremor of the head and limbs and its duration” value in the assay on mice was “profound tremor of the head and limbs lasting for more than one hour”.
As for `CNC(=O)N(C)CC#CCN1CCCC1` [Example 1a, N,N'-Dimethyl-N-4-(1-pyrrolidinyl)-2-butynyl]-urea, hydrochloride], the IC50 in assay [2] worked out at 0.0434 µM; in assay [3], 8.79 µM. In addition, in assay [4], the “MIPA (ED50)” value is 2.91 × 10^-5.
As for `Nc1ccncc1N` [3,4-diaminopyridine], in assay [5], the “effect on age-related cognitive deficits” value is reported as “ameliorate age-related cognitive deficits”.

The values are drawn from patent US4988688A, “4-(N-substituted amino)-2-butynyl-1-ureas and thioureas and derivatives thereof as centrally acting muscarinic agents” (Warner-Lambert Company, priority 1989, dated 1991).
